Test: xn = mol fraction of the nth substance listed, in the solute-free solvent

c1ccc(-c2ccc(C(c3ccccc3)n3ccnc3)cc2)cc1 (stereo not given) + CO + O
solubility (g/100 g solution)
Details	278.15 K	283.15 K	288.15 K	293.15 K	298.15 K	303.15 K	308.15 K	313.15 K	318.15 K
x2 = 0.05881	0.0843	0.114	0.153	0.198	0.236	0.32	0.418	0.51	0.631
x2 = 0.1233	0.301	0.4	0.525	0.671	0.792	1.05	1.35	1.63	1.98
x2 = 0.1942	0.641	0.845	1.1	1.39	1.74	2.21	2.78	3.35	3.94
x2 = 0.2727	0.98	1.28	1.66	2.1	2.5	3.23	4.06	4.89	5.86
x2 = 0.3599	1.23	1.68	2.17	2.73	3.35	4.17	5.19	6.23	7.39
x2 = 0.4576	1.42	1.87	2.41	3.07	3.72	4.76	5.94	7.21	8.64
x2 = 0.5675	1.6	2.11	2.72	3.56	4.38	5.54	6.87	8.37	9.89
x2 = 0.6923	1.81	2.39	3.08	3.95	4.89	6.2	7.71	9.46	11.3
x2 = 0.835	2.04	2.8	3.67	4.72	5.88	7.29	8.87	10.8	12.9

CC1CCC2C(C)C(OC(=O)CCC(=O)O)OC3OC4(C)CCC1C32OO4 (stereo not given) + CCO + O
solubility (g/100 g solution)
Details	278.15 K	283.15 K	288.15 K	293.15 K	298.15 K	303.15 K	308.15 K	313.15 K	318.15 K
x2 = 0.04179	0.113	0.146	0.183	0.23	0.279	0.348	0.427	0.517	0.627
x2 = 0.08949	0.369	0.462	0.563	0.69	0.817	0.994	1.19	1.41	1.66
x2 = 0.1436	0.816	0.995	1.19	1.43	1.66	1.97	2.32	2.69	3.12
x2 = 0.2067	1.38	1.65	1.94	2.29	2.62	3.07	3.55	4.06	4.64
x2 = 0.2813	1.97	2.33	2.69	3.13	3.56	4.1	4.66	5.26	5.94
x2 = 0.3699	2.54	2.92	3.37	3.87	4.36	4.95	5.59	6.25	6.96
x2 = 0.4771	3.08	3.48	3.92	4.47	5.03	5.67	6.34	7.03	7.74
x2 = 0.6102	3.61	4.02	4.51	5.11	5.67	6.29	6.98	7.63	8.37
x2 = 0.7797	4.05	4.46	4.95	5.55	6.12	6.72	7.39	8.06	8.72

Cc1nc2n(c(=O)c1CCN1CCC(c3noc4cc(F)ccc34)CC1)CCCC2 + CC(C)=O + O
solubility (g/100 g solution)
Details	278.15 K	283.15 K	288.15 K	293.15 K	298.15 K	303.15 K	308.15 K	313.15 K
x2 = 0.1175	0.369	0.399	0.453	0.525	0.623	0.702	0.817	0.918
x2 = 0.1714	0.727	0.805	0.935	1.11	1.27	1.53	1.7	2.03
x2 = 0.2368	1.54	1.75	2.02	2.34	2.73	3.22	3.75	4.38
x2 = 0.3171	2.54	2.93	3.36	3.95	4.61	5.44	6.41	7.62
x2 = 0.42	3.38	3.87	4.49	5.26	6.16	7.21	8.51	10.1
x2 = 0.5538	3.5	4.03	4.71	5.51	6.46	7.65	9.06	10.7
x2 = 0.7366	2.51	2.92	3.5	4.08	4.75	5.67	6.67	7.88

NC(=O)NC1NC(=O)NC1=O (stereo not given) + O + CO
solubility (g/100 g solution)
Details	288.15 K	293.15 K	298.15 K	303.15 K	308.15 K	313.15 K	318.15 K	323.15 K	328.15 K	333.15 K
x2 = 0.2	0.0735	0.0876	0.104	0.134	0.155	0.188	0.219	0.264	0.299	0.353
x2 = 0.359	0.114	0.138	0.175	0.205	0.255	0.297	0.357	0.443	0.521	0.582
x2 = 0.599	0.212	0.27	0.328	0.408	0.519	0.629	0.74	0.895	1.08	1.23
x2 = 0.771	0.239	0.328	0.424	0.526	0.694	0.866	1.06	1.28	1.55	1.94
x2 = 0.9	0.319	0.389	0.506	0.642	0.836	1.05	1.29	1.53	1.86	2.27

Cc1ncc(CO)c(CO)c1O.Cl + O + CC#N
solubility (g/100 g solution)
Details	278.15 K	283.15 K	288.15 K	293.15 K	298.15 K	303.15 K	308.15 K	313.15 K
x2 = 0.3	0.681	0.776	0.889	1.02	1.16	1.3	1.47	1.67
x2 = 0.4	2.06	2.27	2.65	2.92	3.32	3.7	4.04	4.51
x2 = 0.5	3.81	4.09	4.73	5.11	5.79	6.6	7.19	8.12
x2 = 0.6	5.82	6.51	7.44	8.31	9.5	10.3	11.2	12.6
x2 = 0.7	8.18	9.25	10.4	11.8	13.4	14.2	15.5	17.9
x2 = 0.8	10.6	11.9	13.4	15.2	16.6	18.3	20	23.4
x2 = 0.9	11.5	13.3	14.6	17	18.6	20.7	22.7	26.3

CC(S)C(=O)NCC(=O)O (stereo not given) + CC(C)CO + Cc1ccccc1
solubility (g/100 g solution)
Details	273.15 K	278.15 K	283.15 K	288.15 K	293.15 K	298.15 K	303.15 K	308.15 K	313.15 K	318.15 K
x2 = 0.2371	0.622	0.677	0.744	0.819	0.9	0.989	1.09	1.21	1.34	1.48
x2 = 0.4531	1.14	1.3	1.45	1.64	1.87	2.12	2.37	2.63	2.92	3.35
x2 = 0.6509	1.71	1.98	2.28	2.67	3.04	3.56	4.09	4.71	5.39	6.3
x2 = 0.8325	2.92	3.45	4.01	4.57	5.19	5.87	6.57	7.38	8.31	9.34

FC(F)(F)c1cccnc1Cl + CN(C)C=O + CCO
solubility (g/100 g solution)
Details	263.15 K	268.15 K	273.15 K	278.15 K	283.15 K	288.15 K	293.15 K	298.15 K	303.15 K
x2 = 0.2013	36.2	43.5	51.6	59	67	74.8	82.5	89.4	95.4
x2 = 0.3352	41.2	48.1	56.3	62.5	69.5	77	83.4	90.3	96
x2 = 0.5291	47.4	53.8	60.5	66.9	73.2	79.9	85.7	91.4	96.8
x2 = 0.7496	51.2	57.2	63.7	69.6	75.4	81.3	86.7	92.5	97.7
